According to patent publication US20110183958A1, “AZETIDINE DERIVATIVES AS INHIBITORS OF STEAROYL-COENZYME A DELTA-9 DESATURASE” (Merck Frosst Canada Ltd., priority 2008, published 2011):

These molecules were tested against T1, human SCD1 (hSCD-1) (Homo sapiens, UniProt O00767) (assay: SCD enzyme activity assay with reconstituted human SCD1 (hSCD-1)).
T1 construct: made in house; host or cells: baculovirus/Sf9
T1 sequence (O00767 1-359): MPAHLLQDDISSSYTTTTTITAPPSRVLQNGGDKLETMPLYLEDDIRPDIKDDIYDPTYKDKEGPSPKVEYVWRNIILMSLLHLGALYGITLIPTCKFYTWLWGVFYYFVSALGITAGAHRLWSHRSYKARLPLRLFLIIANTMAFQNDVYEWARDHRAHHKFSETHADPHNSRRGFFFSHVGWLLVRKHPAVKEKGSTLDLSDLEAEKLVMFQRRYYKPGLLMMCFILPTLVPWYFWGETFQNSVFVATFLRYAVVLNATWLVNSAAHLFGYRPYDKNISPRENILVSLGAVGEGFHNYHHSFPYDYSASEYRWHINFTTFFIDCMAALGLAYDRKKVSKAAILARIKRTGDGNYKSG
Assay type: biochemical
Protocol: I. SCD Enzyme Activity Assay:
The potency of compounds of formula I against the stearoyl-CoA desaturase was determined by measuring the conversion of radiolabeled stearoyl-CoA to oleoyl-CoA using rat liver microsome or human SCD1 (hSCD-1) following previously published procedures with some modifications (Joshi, et al., J. Lipid Res., 18: 32-36 (1977); Talamo, et al., Anal. Biochem, 29: 300-304 (1969)). Liver microsome was prepared from male Wistar or Sprague Dawley rats on a high carbohydrate diet for 3 days (LabDiet # 5803, Purina). The livers were homogenized (1:10 w/v) in a buffer containing 250 mM sucrose, 1 mM EDTA, 5 mM DTT and 50 mM Tris-HCl (pH 7.5). After a 100,000×g centrifugation for […], the liver microsome pellet was suspended in a buffer containing 100 mM sodium phosphate, 20% glycerol, 2 mM DTT, and stored at −78° C. Human SCD1 desaturase system was reconstituted using human SCD1 from a baculovirus/Sf9 expression system, cytochrome B5 and cytochrome B5 reductase. Typically, test compound in 2 μL DMSO was incubated for 15 min at room temperature with 180 μL of the SCD enzyme in a buffer containing 100 mM Tris-HCl (pH 7.5), ATP (5 mM), Coenzyme-A (0.1 mM), Triton X-100 (0.5 mM) and NADH (2 mM). The reaction was initiated by the addition of 20 μL of [^3H]-stearoyl-CoA (final concentration=2 μM, radioactivity concentration=1 μCi/mL). After 10 min, the reaction mixture (80 μL) was mixed with a calcium chloride/charcoal aqueous suspension (100 μL, charcoal (10% w/v) plus 25 μL, CaCl2 (2N). After centrifugation to precipitate the radioactive fatty acid species, tritiated water released from 9,10-[^3H]-stearoyl-CoA by the SCD enzyme was quantified on a scintillation counter.

SMILES	IC50
CNC(=O)c1cnc(N2CC(Oc3cc(F)ccc3Br)C2)cn1	45 nM
O=C(Nc1ccccc1)c1cnc(N2CC(Oc3cc(F)ccc3Br)C2)cn1	29 nM
O=C(Nc1ccsc1)c1cnc(N2CC(Oc3cc(F)ccc3Br)C2)cn1	24 nM
O=C(Nc1ccc2ccccc2c1)c1cnc(N2CC(Oc3cc(F)ccc3Br)C2)cn1	23 nM
O=C(O)CCc1ccc(NC(=O)c2cnc(N3CC(Oc4cc(F)ccc4Br)C3)cn2)cc1	45 nM

Now those with a lower IC50, led by results:

IC50	SMILES
9 nM	COc1ccc(NC(=O)c2cnc(N3CC(Oc4cc(F)ccc4Br)C3)cn2)cc1
16 nM	O=C(Nc1ccc(-c2cc[nH]n2)cc1)c1cnc(N2CC(Oc3cc(F)ccc3Br)C2)cn1
11 nM	CS(=O)(=O)c1ccc(NC(=O)c2cnc(N3CC(Oc4cc(F)ccc4Br)C3)cn2)cc1
